Test systems include HCC-2998 colon; DU-145 prostate; HCT-116 colon; SNB-19 CNS; OVCAR-8 ovarian; KM12 colon; UACC-257 melanoma; UO-31 renal; HOP-92 NSCLC; CAKI-1 renal.
What all share (test): NCI tumour cell line growth inhibition, 48 h

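The compound was tested at five concentrations on cells cultured in 96-well plates, with a 48-hour exposure period. Abbreviation: GI50, concentration required for 50% inhibition of growth. The concentration for full growth arrest is given as TGI.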

In the case of `C=C1C(=O)O[C@H]2[C@H]1CC/C(COC(=O)N1CCC[C@H]1C(=O)Nc1ccc(OC)c(C(N)=O)c1O)=C\CC[C@@]1(C)O[C@@H]21`, the GI50 in the experiment on HCC-2998 colon is 8.61 µM; in the experiment with DU-145 prostate, 3.95 µM; with HCT-116 colon, 1.33 µM; with SNB-19 CNS it was 7.62 µM; in the experiment with OVCAR-8 ovarian, 4.73 µM; in the experiment with KM12 colon it was 5.53 µM. In addition, the GI50 was 2.88 µM in the experiment with UACC-257 melanoma, 2.11 µM in the experiment with UO-31 renal and 1.23 µM with HOP-92 NSCLC. Also, the TGI was determined as 23.3 µM with HCC-2998 colon; 14.5 µM with DU-145 prostate; 3.06 µM in the experiment with HCT-116 colon; 23.9 µM in the experiment with SNB-19 CNS; 26 µM in the experiment on OVCAR-8 ovarian; 20 µM in the experiment on KM12 colon. The TGI is 10.9 µM in the experiment on UACC-257 melanoma, 8.97 µM with UO-31 renal and 3.32 µM in the experiment on HOP-92 NSCLC.
Turning to `O=NNc1nc(-c2cccnc2)nc2ccccc12`, the TGI with HCC-2998 colon, in the experiment with DU-145 prostate, in the experiment on HCT-116 colon, in the experiment with SNB-19 CNS, in the experiment on OVCAR-8 ovarian and in the experiment on KM12 colon was more than 100 µM each time. The TGI in the experiment on UACC-257 melanoma was more than 100 µM; with UO-31 renal it was 32.8 µM; in the experiment with CAKI-1 renal, more than 100 µM.
Take `CN(C)CCOc1ccc2c(c1)C/C(=C/c1ncc([N+](=O)[O-])n1C)C2=O`: the TGI in the experiment on DU-145 prostate is 14 µM; in the experiment with HCT-116 colon it was more than 19.6 µM; in the experiment on SNB-19 CNS, 15.3 µM; with OVCAR-8 ovarian, 8.01 µM; with KM12 colon, 11.6 µM; with UACC-257 melanoma, 14.7 µM. Moreover, the TGI in the experiment with UO-31 renal worked out at 3.61 µM; in the experiment on CAKI-1 renal it was 7.81 µM; in the experiment on HOP-92 NSCLC it was 5.77 µM.
Turning to `COc1ccc2c(c1)OC(N(C(C)=O)C(C)=O)=C(C#N)C2c1ccc(F)cc1` (stereo not given), the GI50 with HCC-2998 colon was 4.93 µM; in the experiment with DU-145 prostate it was 2.85 µM; in the experiment on HCT-116 colon, 1.26 µM; in the experiment with SNB-19 CNS, 2.91 µM; in the experiment with OVCAR-8 ovarian, 3.92 µM; in the experiment with KM12 colon it was 0.664 µM. The GI50 in the experiment with UACC-257 melanoma is 23 µM; in the experiment on UO-31 renal, 4.19 µM; in the experiment on HOP-92 NSCLC, 10.9 µM. Besides, the TGI in the experiment with HCC-2998 colon, with DU-145 prostate, with HCT-116 colon, in the experiment with SNB-19 CNS, in the experiment with OVCAR-8 ovarian and in the experiment on KM12 colon was more than 100 µM each time. Further, the TGI with UACC-257 melanoma is more than 100 µM; in the experiment with UO-31 renal, more than 100 µM; with HOP-92 NSCLC it was 90.4 µM.
Consider `CN(CCOc1ccc(C#N)cc1)CCOc1ccc(C#N)cc1`, for which the GI50 in the experiment with HCC-2998 colon was more than 100 µM; with DU-145 prostate it was 90 µM; in the experiment on HCT-116 colon, 60.5 µM; in the experiment with SNB-19 CNS, more than 100 µM; in the experiment on OVCAR-8 ovarian, 29 µM; with KM12 colon, 16.6 µM. The GI50 with UACC-257 melanoma was 28.9 µM; in the experiment with UO-31 renal, 18.7 µM; in the experiment on CAKI-1 renal, 74.6 µM. For the same compound, the TGI in the experiment on HCC-2998 colon was more than 100 µM; with DU-145 prostate it was more than 100 µM; in the experiment on HCT-116 colon it was more than 100 µM; in the experiment on SNB-19 CNS it was more than 100 µM; in the experiment with OVCAR-8 ovarian it was more than 100 µM; in the experiment on KM12 colon, 66.2 µM. Besides, the TGI in the experiment on UACC-257 melanoma, in the experiment on UO-31 renal and in the experiment on CAKI-1 renal was more than 100 µM in each case.
Consider `CCOP(=O)(OCC)C(NC(c1ccccc1)c1ccccc1)c1cccc2ccccc12` (stereo not given), for which the GI50 was 4.55 µM in the experiment with HCC-2998 colon; 20.4 µM in the experiment on DU-145 prostate; 6.14 µM in the experiment on OVCAR-8 ovarian; 5.32 µM in the experiment with KM12 colon; 3.22 µM in the experiment with UACC-257 melanoma; 12.3 µM in the experiment with UO-31 renal. For the same compound, the results for the GI50 in the experiment with CAKI-1 renal and in the experiment on HOP-92 NSCLC were 4.09 µM and 11.7 µM, respectively. Moreover, the TGI with HCC-2998 colon was 17.2 µM; in the experiment on DU-145 prostate, 39 µM; with OVCAR-8 ovarian, more than 100 µM; in the experiment on KM12 colon, 23 µM; with UACC-257 melanoma it was 13.9 µM; in the experiment on UO-31 renal, more than 100 µM. Besides, the TGI stood at 14.5 µM with CAKI-1 renal and 28.4 µM in the experiment on HOP-92 NSCLC.
As to `CO/N=C(\C)c1ccc(Nc2cc(-c3ccccc3)nc3c(O)cccc23)cc1`, the GI50 in the experiment on HCC-2998 colon is 22.1 µM; in the experiment on DU-145 prostate, 14.1 µM; in the experiment on HCT-116 colon, 22.2 µM; in the experiment with OVCAR-8 ovarian, 13.6 µM; in the experiment on UACC-257 melanoma it was 15.9 µM; in the experiment on UO-31 renal, 19.6 µM. Besides, the results for the GI50 in the experiment with CAKI-1 renal and in the experiment with HOP-92 NSCLC were 19.4 µM and 17.5 µM, respectively. Besides, the TGI in the experiment with HCC-2998 colon came out at 37.1 µM; in the experiment on DU-145 prostate, 32 µM; in the experiment with HCT-116 colon, 52.7 µM; in the experiment with OVCAR-8 ovarian it was 33.9 µM; with UACC-257 melanoma it was 32.3 µM; in the experiment on UO-31 renal, 42.5 µM. Also, the TGI came to 35.5 µM with CAKI-1 renal and 33.7 µM with HOP-92 NSCLC.
Consider `CC(C)NC(=O)OCCS(=O)c1c(Cl)c(Cl)nn1C` (stereo not given), for which the TGI in the experiment with DU-145 prostate, in the experiment on HCT-116 colon, with SNB-19 CNS, in the experiment on KM12 colon, with UO-31 renal and with CAKI-1 renal was more than 100 µM each time.
Consider `CN(C)CCCN1CCc2c([nH]c3ccccc23)C1c1cccnc1` (stereo not given), for which the TGI in the experiment with HCC-2998 colon, with HCT-116 colon, in the experiment with SNB-19 CNS, with OVCAR-8 ovarian, in the experiment with KM12 colon and in the experiment on UACC-257 melanoma was more than 100 µM throughout. In addition, the TGI with UO-31 renal, in the experiment on CAKI-1 renal and in the experiment with HOP-92 NSCLC was more than 100 µM in each case.
As for `Cn1ccnc1C(=O)/C=C/c1ccc(CC(=O)Nc2ccccc2)cc1`, the GI50 in the experiment on HCC-2998 colon is 4.42 µM; in the experiment with DU-145 prostate it was 1.1 µM; in the experiment with HCT-116 colon, 1.68 µM; with SNB-19 CNS it was 1.9 µM; in the experiment on OVCAR-8 ovarian it was 6.44 µM; with KM12 colon, 3.39 µM. Also, the GI50 in the experiment with UACC-257 melanoma was 6.98 µM; in the experiment on UO-31 renal it was 2.77 µM; with HOP-92 NSCLC it was 6.63 µM. Moreover, the TGI is 8.96 µM in the experiment on HCC-2998 colon; 4.03 µM with DU-145 prostate; 5.13 µM in the experiment with HCT-116 colon; 11.9 µM with SNB-19 CNS; more than 25 µM in the experiment on OVCAR-8 ovarian; 8.17 µM with KM12 colon. In addition, the TGI in the experiment with UACC-257 melanoma is 21.1 µM; in the experiment on UO-31 renal, 5.86 µM; in the experiment with HOP-92 NSCLC, more than 25 µM.
As to `N#CC(C(=O)C(=O)NCCCNC(=O)C(=O)C(C#N)c1ccccc1)c1ccccc1` (stereo not given), the TGI in the experiment on HCC-2998 colon, with HCT-116 colon, with SNB-19 CNS, with OVCAR-8 ovarian, in the experiment with KM12 colon and in the experiment with UACC-257 melanoma was more than 100 µM each time. Also, the TGI with UO-31 renal, in the experiment on CAKI-1 renal and in the experiment with HOP-92 NSCLC was more than 100 µM each time.
As for `N[C@H](C(=O)O)[C@H](Cl)CC(=O)O`, the TGI in the experiment on HCC-2998 colon, in the experiment with HCT-116 colon, with SNB-19 CNS, in the experiment with OVCAR-8 ovarian, in the experiment on KM12 colon and in the experiment on UACC-257 melanoma was more than 100 µM throughout. In addition, the TGI with UO-31 renal, with CAKI-1 renal and in the experiment with HOP-92 NSCLC was more than 100 µM throughout.
`Nc1nc2c(c(=O)[nH]1)CN(c1ccc(S(N)(=O)=O)cc1)CN2`: the TGI with DU-145 prostate, in the experiment with HCT-116 colon, in the experiment with SNB-19 CNS, in the experiment with OVCAR-8 ovarian, in the experiment on KM12 colon and in the experiment on UACC-257 melanoma was more than 100 µM throughout. The TGI in the experiment on UO-31 renal, in the experiment with CAKI-1 renal and in the experiment with HOP-92 NSCLC was more than 100 µM in each case.
Turning to `COc1nc2nccc-2c2occn12`, the TGI with HCC-2998 colon, with HCT-116 colon, in the experiment on SNB-19 CNS, with OVCAR-8 ovarian, in the experiment on KM12 colon and in the experiment with UACC-257 melanoma was more than 100 µM each time. The TGI in the experiment on UO-31 renal, in the experiment with CAKI-1 renal and in the experiment with HOP-92 NSCLC was more than 100 µM throughout.
Turning to `NNC(=O)CCC(=O)NC1C2CC3CC(C2)CC1C3` (stereo not given), the TGI in the experiment with HCC-2998 colon, in the experiment with HCT-116 colon, with SNB-19 CNS, in the experiment on OVCAR-8 ovarian, in the experiment on KM12 colon and with UACC-257 melanoma was more than 100 µM each time. Besides, the TGI in the experiment on UO-31 renal, in the experiment on CAKI-1 renal and in the experiment on HOP-92 NSCLC was more than 100 µM in each case.
Take `CC(=O)c1cc([N+](=O)[O-])ccc1OCC(=O)O`: the TGI with HCC-2998 colon, with HCT-116 colon, in the experiment with SNB-19 CNS, in the experiment with OVCAR-8 ovarian, in the experiment with KM12 colon and in the experiment on UACC-257 melanoma was more than 100 µM each time. Besides, the TGI in the experiment on UO-31 renal, in the experiment with CAKI-1 renal and in the experiment on HOP-92 NSCLC was more than 100 µM each time.
As for `COc1cc([C@@H]2c3cc4c(cc3[C@@H](NC(=O)c3ccccc3)C3COC(=O)[C@@H]32)OCO4)cc(OC)c1O` (stereo not given in full), the TGI was 35.4 µM in the experiment with HCC-2998 colon; 28.8 µM with HCT-116 colon; more than 100 µM in the experiment with SNB-19 CNS; 37.7 µM in the experiment on OVCAR-8 ovarian; 28.3 µM with KM12 colon; 48.1 µM in the experiment with UACC-257 melanoma. Further, the TGI in the experiment on UO-31 renal is 23.5 µM; with CAKI-1 renal it was more than 100 µM; in the experiment on HOP-92 NSCLC, 87.9 µM.

The values above are taken from PubChem BioAssay (NCI).
